From patent US20120083471A1, “Novel Compounds, Pharmaceutical Compositions Containing Same, Methods of Use for Same, and Methods for Preparing Same” (priority 2008, published 2012)
Where two headings read alike, the source gives them in different places.

Assays:
mtGPAT1 = biological target: T1, mtGPAT1 (Mus musculus, UniProt Q61586); assay: In vitro mtGPAT inhibition: acylation of 14C-glycerol 3-phosphate with palmitoyl-CoA, scintillation counting; assay type: biochemical
T1 construct: from tissue; host or cells: mitochondrial preparation
T1 sequence (Q61586 1-827): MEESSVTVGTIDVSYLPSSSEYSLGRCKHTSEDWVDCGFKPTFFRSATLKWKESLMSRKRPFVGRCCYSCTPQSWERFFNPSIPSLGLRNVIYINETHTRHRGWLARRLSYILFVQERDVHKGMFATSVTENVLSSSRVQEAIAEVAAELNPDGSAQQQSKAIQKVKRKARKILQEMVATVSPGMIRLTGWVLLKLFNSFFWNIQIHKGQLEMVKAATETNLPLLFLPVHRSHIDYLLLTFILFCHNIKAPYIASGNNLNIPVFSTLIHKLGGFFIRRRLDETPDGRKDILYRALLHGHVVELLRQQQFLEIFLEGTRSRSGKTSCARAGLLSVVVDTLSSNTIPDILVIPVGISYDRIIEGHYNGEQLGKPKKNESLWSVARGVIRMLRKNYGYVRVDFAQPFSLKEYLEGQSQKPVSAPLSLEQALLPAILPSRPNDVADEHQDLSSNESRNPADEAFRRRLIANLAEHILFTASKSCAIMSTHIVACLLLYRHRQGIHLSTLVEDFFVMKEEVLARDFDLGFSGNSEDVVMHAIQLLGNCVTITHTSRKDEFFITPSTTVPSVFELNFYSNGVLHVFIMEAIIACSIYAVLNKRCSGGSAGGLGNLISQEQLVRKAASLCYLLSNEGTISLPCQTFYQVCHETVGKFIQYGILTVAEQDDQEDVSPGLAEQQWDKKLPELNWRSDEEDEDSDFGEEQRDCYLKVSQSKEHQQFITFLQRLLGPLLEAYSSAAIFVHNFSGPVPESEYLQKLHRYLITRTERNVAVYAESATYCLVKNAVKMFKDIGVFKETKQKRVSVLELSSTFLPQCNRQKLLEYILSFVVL
Experimental: The compounds produced as described above were evaluated for their ability to inhibit the acylation of glycerol-3-phosphate in vitro. The acylation reaction between ^14C-labelled glycerol-3-phosphate and palmitoyl-CoA, initiated by adding mtGPAT, was measured in the presence of varying concentrations of the inhibitor by scintillation counting as described in more detail below.
A mitochondrial preparation of glycerol 3-phosphate acyltransferase was added to the incubation mixture containing ^14C-labeled glycerol 3-phosphate, palmitoyl-CoA, and varying inhibitor concentrations to initiate the reaction. After ten min, the reaction was terminated by adding chloroform, methanol, and 1% perchloric acid. Five minutes later, more chloroform and perchloric acid were added, and the upper aqueous layer was removed. After washing three times with 1% perchloric acid, the organic layer was evaporated under nitrogen, and the amount of ^14C present was counted to determine the extent of reaction inhibition. Data points were recorded in triplicate, and IC50 values were calculated based on the amount of test inhibitor necessary to produce 50% of mtGPAT activity observed in the absence of inhibitor but in the presence of DMSO vehicle control.

FAO = FAO (SC 150 and Max) entries of the compound data sheets
[1] = compounds 4a-t and 7a-t, read-out: GPAT IC50
[2] = Table 1, sulfonamides 5a-f and 13a-f, triplicate, read-out: IC50 (μM) ± SD, In Vitro Anti-mtGPAT1 Activity
[3] = Table 2, sulfonamides 15a-i and 17a-f, triplicate, read-out: IC50 (μM) ± SD, In Vitro Anti-mtGPAT1 Activity
[4] = Table 3, sulfonamides 21a-c and 24a-f, triplicate, read-out: IC50 (μM) ± SD, In Vitro Anti-mtGPAT1 Activity

CCCCCCCCS(=O)(=O)Nc1cc(-c2ccccc2Cl)ccc1C(=O)O
IC50 (mtGPAT1; [1]): 23.1 µM
FAO SC 150 (FAO): FAS (IC50) Not Tested CPT I Stim Not Tested FAO SC 150 Neg SA/MH (MIC) ug/ml

CCCCCCCCS(=O)(=O)Nc1cc(-c2ccc(C#N)cc2)ccc1C(=O)O
IC50 (mtGPAT1; [1]): 20 µM
FAO SC 150 (FAO): FAS (IC50) Not Tested CPT I Stim Not Tested FAO SC 150 Neg SA/MH (MIC) ug/ml

CCCCCCCCS(=O)(=O)Nc1cc(-c2cccc(C(C)=O)c2)ccc1C(=O)O
IC50 (mtGPAT1; [1]): 29.2 µM
FAO SC 150 (FAO): FAS (IC50) Not Tested CPT I Stim Not Tested FAO SC 150 Neg SA/MH (MIC) ug/ml

CCCCCCCCS(=O)(=O)Nc1ccc(-c2ccc(OC)cc2)cc1C(=O)O
IC50 (mtGPAT1; [1]): 19.1 µM
FAO SC 150 (FAO): FAS (IC50) Not Tested CPT I Stim Not Tested FAO SC 150 Neg SA/MH (MIC) ug/ml

CCCCCCCCS(=O)(=O)Nc1ccc(-c2cccnc2)cc1C(=O)O
IC50 (mtGPAT1; [1]): 76.3 µM
FAO SC 150 (FAO): FAS (IC50) Not Tested CPT I Stim Not Tested FAO SC 150 Neg SA/MH (MIC) ug/ml

CCCCCCCCS(=O)(=O)Nc1ccc(-c2cccs2)cc1C(=O)O
IC50 (mtGPAT1; [1]): 22.2 µM
FAO SC 150 (FAO): FAS (IC50) Not Tested CPT I Stim Not Tested FAO SC 150 Neg SA/MH (MIC) ug/ml

CCCCCCCCS(=O)(=O)Nc1ccc(-c2ccc(C#N)cc2)cc1C(=O)O
IC50 (mtGPAT1; [1]): 24.6 µM
FAO SC 150 (FAO): FAS (IC50) Not Tested CPT I Stim Not Tested FAO SC 150 Neg SA/MH (MIC) ug/ml

CCCCCCCCS(=O)(=O)Nc1ccc(-c2ccc(Cl)cc2Cl)cc1C(=O)O
IC50 (mtGPAT1; [1]): 17.2 µM
FAO SC 150 (FAO): FAS (IC50) Not Tested CPT I Stim Not Tested FAO SC 150 Neg SA/MH (MIC) ug/ml

CCCCCCCCS(=O)(=O)Nc1ccc(-c2ccccc2O)cc1C(=O)O
IC50 (mtGPAT1; [1]): 63.4 µM
FAO SC 150 (FAO): FAS (IC50) Not Tested CPT I Stim Not Tested FAO SC 150 Neg SA/MH (MIC) ug/ml

CCCCCCCCS(=O)(=O)Nc1ccc(-c2ccccc2F)cc1C(=O)O
IC50 (mtGPAT1; [1]): 31.2 µM
FAO SC 150 (FAO): FAS (IC50) Not Tested CPT I Stim Not Tested FAO SC 150 Neg SA/MH (MIC) ug/ml

CCCCCCCCS(=O)(=O)Nc1ccc(-c2cccc(F)c2)cc1C(=O)O
IC50 (mtGPAT1; [1]): 52 µM
FAO SC 150 (FAO): FAS (IC50) Not Tested CPT I Stim Not Tested FAO SC 150 Neg SA/MH (MIC) ug/ml

CCCCCS(=O)(=O)NCc1ccc(C(=O)O)cc1 [Compound 5a, 4-(Pentylsulfonamidomethyl)benzoic acid]
IC50 (mtGPAT1; [2]): 72 ± 1.7 µM
melting point: 188 to 189 °C

CCCCCCCCCS(=O)(=O)NCc1ccc(C(=O)O)cc1 [Compound 5b, 4-(Nonylsulfonamidomethyl)benzoic acid]
IC50 (mtGPAT1; [2]): 43.9 µM
melting point: 178 to 180 °C

CCCCCS(=O)(=O)NCc1cccc(C(=O)O)c1 [Compound 5c, 3-(Pentylsulfonamidomethyl)benzoic acid]
IC50 (mtGPAT1; [2]): 88.5 ± 1.7 µM
melting point: 160 to 161 °C

CCCCCCCCCS(=O)(=O)NCc1cccc(C(=O)O)c1 [Compound 5d, 3-(Nonylsulfonamidomethyl)benzoic acid]
IC50 (mtGPAT1; [2]): 28.5 µM
melting point: 150 to 151 °C

CCCCCS(=O)(=O)NCc1ccccc1C(=O)O [Compound 5e, 2-(Pentylsulfonamidomethyl)benzoic acid]
IC50 (mtGPAT1; [2]): 61.9 ± 13.5 µM
melting point: 100 °C

CCCCCCCCCS(=O)(=O)NCc1ccccc1C(=O)O [Compound 5f, 2-(Nonylsulfonamidomethyl)benzoic acid]
IC50 (mtGPAT1; [2]): 22.7 µM
melting point: 79 to 82 °C

CCCCCS(=O)(=O)Nc1cccc(CP(=O)(O)O)c1 [Compound 13c, 3-(Pentylsulfonamido)benzylphosphonic acid]
IC50 (mtGPAT1; [2]): 45.3 ± 9 µM
melting point: 127 to 128 °C

CCCCCCCCCS(=O)(=O)Nc1cccc(CP(=O)(O)O)c1 [Compound 13d, 3-(Nonylsulfonamido)benzylphosphonic acid]
IC50 (mtGPAT1; [2]): 23.7 µM
melting point: 149 to 150 °C

CCCCCS(=O)(=O)Nc1ccc(CP(=O)(O)O)cc1 [Compound 13e, 4-(Pentylsulfonamido)benzylphosphonic acid]
IC50 (mtGPAT1; [2]): 47.7 ± 9.6 µM
melting point: 198 to 200 °C

CCCCCCCCCS(=O)(=O)Nc1cccc(C(=O)O)c1 [Compound 15d, 3-(Nonylsulfonamido)benzoic acid]
IC50 (mtGPAT1; [3]): 24.2 ± 2.9 µM
melting point: 183 to 184 °C

O=C(O)c1ccccc1NS(=O)(=O)c1ccccc1 [Compound 15h, 2-(Phenylsulfonamido)benzoic acid]
IC50 (mtGPAT1; [3]): 40.5 ± 2.6 µM
melting point: 213 to 215 °C

CCCCCCCCCCCCCCS(=O)(=O)Nc1ccccc1C(=O)O [Compound 24b, 2-(Tetradecylsulfonamido)benzoic acid]
IC50 (mtGPAT1; [4]): 6.9 ± 0.5 µM
melting point: 120 to 122 °C

CCCCCCCCCCCCCCCCS(=O)(=O)Nc1ccccc1C(=O)O [Compound 24c, 2-(Hexadecylsulfonamido)benzoic acid]
IC50 (mtGPAT1; [4]): 7.8 ± 0.8 µM
melting point: 126 to 128 °C

CCCCCCCCS(=O)(=O)Nc1ccc(O)cc1C(=O)O [Compound 24e, 5-Hydroxy-2-(octylsulfonamido)benzoic acid]
IC50 (mtGPAT1; [4]): 38.2 ± 4.1 µM
melting point: 142 to 144 °C

CCCCCCCCS(=O)(=O)Nc1ccc(F)cc1C(=O)O [Compound 24f, 5-Fluoro-2-(octylsulfonamido)benzoic acid]
IC50 (mtGPAT1; [4]): 29.5 ± 2.6 µM
melting point: 141 to 143 °C
